Experimental data reported in ChEMBL document CHEMBL3227967, “Quantitative structure-activity relationships in 1-aryl-2-(alkylamino)ethanol antimalarials” (J Med Chem, 1979).

Each compound was assayed on Plasmodium berghei (assay: Antimalarial activity against Plasmodium berghei).
Type: functional

Structure (SMILES) | log(1/C)
CCC(C)NCC(O)c1cc(-c2ccc(C(F)(F)F)cc2)nc(-c2ccc(C(F)(F)F)cc2)c1 (centres undefined) | 4.15
CCCCN(CCCC)CC(O)c1c(C)c2ccccc2c2ccccc12 (centres undefined) | 2.79
CCCCN(CCCC)CC(O)c1ccc(Cl)c2nc(-c3ccccc3)ccc12 (centres undefined) | 2.47
CCCCN(CCCC)CC(O)c1cc2ccncc2c2c(Cl)cc(Cl)cc12 (centres undefined) | 2.57
CCCCCCCN(CCCCCCC)CC(O)c1cc2cccc(Cl)c2c2ccccc12 (centres undefined) | 2.82
CCCCNc1cc(C(O)CC2CCCCN2)c2ccccc2n1 (centres undefined) | 2.41
OC(CC1CCCCN1)c1cc(C(F)(F)F)nc2cc(C(F)(F)F)ccc12 (centres undefined) | 4.05
CCCCN(CCCC)CC(O)c1c(Cl)c(-c2ccc(Cl)cc2)nc2c(Cl)cc(Cl)cc12 (centres undefined) | 3.87
CCCCN(CCCC)CC(O)c1cc(-c2ccc(OC)c(OC)c2)nc2ccc(Cl)cc12 (centres undefined) | 3.33
CCN(CC)CC(O)c1cc2cc(Cl)cc(Cl)c2nc1-c1ccc(Cl)cc1 (centres undefined) | 2.47
CC(C)N(C)CC(O)c1cc(-c2ccc(Cl)cc2)nc2c(Cl)cc(Cl)cc12 (centres undefined) | 3.72
CCCCCCCN(CCCCCCC)CC(O)c1c2cccc(Cl)c2cc2c(Cl)cccc12 (centres undefined) | 3.92
OC(CC1CCCCN1)c1cc2c(Cl)cc(Cl)cc2c2cc(C(F)(F)F)ccc12 (centres undefined) | 4.1
CCN(CC)CC(O)c1cc2cc(Cl)ccc2c2cc(Cl)ccc12 (centres undefined) | 4.06
CCCCN(CCCC)CC(O)c1cccc2cc3cccc(Cl)c3cc12 (centres undefined) | 2.26
CCCCCCCN(CCCCCCC)CC(O)c1cc2cccnc2c2ccccc12 (centres undefined) | 2.9
CCCCCCCN(CCCCCCC)CC(O)c1cc2ccc(Br)cc2c2cc(Br)ccc12 (centres undefined) | 3.45
CCCN(CCC)CC(O)c1cc2cc(Br)ccc2c2cc(Br)ccc12 (centres undefined) | 4.27
OC(CC1CCCCN1)c1cc(-c2ccccc2)nc2c(Cl)cccc12 (centres undefined) | 2.69
CCCCCCCN(CCCCCCC)CC(O)c1cc2ccccc2c2ccccc12 (centres undefined) | 2.87
CCCCN(CCCC)CC(O)c1cc(Oc2ccc(Cl)c(Cl)c2)cc2c(Cl)cc(Cl)cc12 (centres undefined) | 2.49
OC(CNC1CCC1)c1cc(-c2ccc(C(F)(F)F)cc2)nc(-c2ccc(C(F)(F)F)cc2)c1 (centres undefined) | 3.85
CCCCN(CCCC)CC(O)c1cc(-c2ccc(Cl)cc2)nc(-c2ccc(Cl)c(Cl)c2)c1 (centres undefined) | 3
CCCCN(CCCC)CC(O)c1cc2ccsc2c2cc(Br)ccc12 (centres undefined) | 3.37
OC(CC1CCCCN1)c1cc2ccc(Br)cc2c2cc(C(F)(F)F)ccc12 (centres undefined) | 3.7

Structure (SMILES) | log(1/C)
CCCCN(CCCC)CC(O)c1cc(-c2cccc(C(F)(F)F)c2)nc(-c2ccc(Cl)c(Cl)c2)c1 (centres undefined) | 2.9
CCCCN(CCCC)CC(O)c1cc(-c2ccc(Cl)cc2)nc2ccc(F)cc12 (centres undefined) | 3.11
CCCCCCCN(CCCCCCC)CC(O)c1c(Br)ccc2c1ccc1ccccc12 (centres undefined) | 2.5
CCCCCCN(CCCCCC)CC(O)c1cc(-c2cccc(C(F)(F)F)c2)nc2c(Cl)cc(Cl)cc12 (centres undefined) | 3.32
CCCCCCN(CCCCCC)CC(O)c1cc(-c2ccc(Cl)cc2)nc2cc(OC)c(Cl)cc12 (centres undefined) | 2.8
CCCCN(CCCC)CC(O)c1cc2cc(Cl)cc(Cl)c2nc1-c1ccc(Cl)cc1 (centres undefined) | 2.32
CCOC(CCCNCC(O)c1cc2ccc(C(F)(F)F)cc2c2cc(C(F)(F)F)ccc12)OCC (centres undefined) | 3.55
OC(CC1CCCCN1)c1cc2cc(C(F)(F)F)ccc2c2cc(C(F)(F)F)ccc12 (centres undefined) | 3.85
CCCCN(CCCC)CC(O)c1c(Br)c2ccccc2c2ccccc12 (centres undefined) | 2.51
OC(CNC1CCCC1)c1cc(-c2ccccc2)nc2c(Cl)cc(Cl)cc12 (centres undefined) | 2.54
OC(CC1CCCCN1)c1cc2ccc(Cl)cc2c2cc(C(F)(F)F)ccc12 (centres undefined) | 4.09
CN(Cc1ccccc1)CC(O)c1cc(-c2cccs2)nc2cccc(Br)c12 (centres undefined) | 2.26
CCCN(CCC)CC(O)c1cc2ccc(Br)cc2c2cc(Br)ccc12 (centres undefined) | 3.95
CCCCCCN(CCCCCC)CC(O)c1cc(-c2ccc(Cl)c(Cl)c2)nc2cc(OC)ccc12 (centres undefined) | 3.1
CS(=O)(=O)c1ccc2cc(C(O)CC3CCCCN3)c3ccc(C(F)(F)F)cc3c2c1 (centres undefined) | 3.32
CCCCN(CCCC)CC(O)c1cc(/C=C/c2ccc(Cl)cc2)nc(C23CC4CC(CC(C4)C2)C3)c1 (centres undefined) | 2.72
CNCC(O)c1cc2ccc(C(F)(F)F)cc2c2cc(C(F)(F)F)ccc12 (centres undefined) | 4.23
CCCCN(CCCC)CC(O)c1cc(-c2ccc(Cl)cc2)cc2ccccc12 (centres undefined) | 3.87
CCCCN(CCCC)CC(O)c1cc2cc(Br)ccc2c2cc(C(F)(F)F)ccc12 (centres undefined) | 4.07
CCCCN(CCCC)CC(O)c1nc(-c2ccc(Cl)cc2)nc2ccccc12 (centres undefined) | 2.85
CCCCCCCN(CCCCCCC)CC(O)c1cc2c(Cl)cc(Cl)cc2c2cc(C)sc12 (centres undefined) | 3.48
CCC(CC)NCC(O)c1cc2ccc(C(F)(F)F)cc2c2cc(C(F)(F)F)ccc12 (centres undefined) | 4.2
CCCCNCC(O)c1cc(-c2ccc(C(F)(F)F)cc2)nc(-c2ccc(C(F)(F)F)cc2)c1 (centres undefined) | 4.16
CCCCN(CCCC)CC(O)c1cc(-c2ccc(Cl)cc2)nc2cc(I)ccc12 (centres undefined) | 3.43
Cc1cc(C)c2nc(-c3ccc(Cl)cc3)cc(C(O)CC3CCCCN3)c2c1 (centres undefined) | 4.04

Structure (SMILES) | log(1/C)
CCCN(CCC)CC(O)c1cc2ccc(C(F)(F)F)cc2c2ccsc12 (centres undefined) | 2.82
CC(C)CCCN(CCC(C)C)CC(O)c1cc(-c2ccc(C(F)(F)F)cc2)nc(C(F)(F)F)c1 (centres undefined) | 3.04
CCCCN(CCCC)CC(O)c1cc(-c2ccc(Cl)cc2)nc2cc3c(cc12)OCO3 (centres undefined) | 2.99
CCCCCCN(CCCCCC)CC(O)c1cc(-c2ccc(F)cc2)nc(-c2ccc(F)cc2)c1 (centres undefined) | 2.58
CCCCCCN(CCCCCC)CC(O)c1cc(-c2ccc(OC)c(OC)c2)nc2cc(Cl)ccc12 (centres undefined) | 3.32
OC(CC1CCCCN1)c1ccnc2cc(Cl)ccc12 (centres undefined) | 2.14
CCCCCCCN(CCCCCCC)CC(O)c1cc(-c2ccc(Cl)c(Cl)c2)cc2cc(Cl)ccc12 (centres undefined) | 2.6
CCCCN(CCCC)CC(O)c1cc(-c2ccc(C)cc2)nc2c(C)cc(C)cc12 (centres undefined) | 2.72
CCCC(CCC)NCC(O)c1cc(/C=C/c2ccc(C(F)(F)F)cc2)nc(/C=C/c2ccc(C(F)(F)F)cc2)c1 (centres undefined) | 4.24
OC(CC1CCCCN1)c1cc2ccccc2c2c(Cl)cc(Cl)cc12 (centres undefined) | 3.52
CCCCCCCN(CCCCCCC)CC(O)c1cc2ccc(Cl)cc2c2cc(OC)ccc12 (centres undefined) | 2.98
CCCCN(CCCC)CC(O)c1cc(C23CC4CC(CC(C4)C2)C3)nc2c(Cl)cc(Cl)cc12 (centres undefined) | 3.29
CCCNCC(O)c1cc(C(F)(F)F)nc2c(C(F)(F)F)cccc12 (centres undefined) | 2.92
OC(CC1CCCCN1)c1cc2ccccc2c2cc(Br)ccc12 (centres undefined) | 3.49
OC(CNC1CCCCC1)c1cc2ccc(Cl)cc2c2cc(Cl)ccc12 (centres undefined) | 3.36
OC(CC1CCCCN1)c1cc(C(F)(F)F)nc2ccc(F)cc12 (centres undefined) | 2.33
CCCCCCCN(CCCCCCC)CC(O)c1cc2c(Cl)cc(Cl)cc2c2ccsc12 (centres undefined) | 3
CCCCCCCN(CCCCCCC)CCC(O)c1cc2ccccc2c2ccccc12 (centres undefined) | 3
CCCCN(CCCC)CC(O)c1cc(-c2ccc(C(F)(F)F)cc2)nc(-c2ccc(C(F)(F)F)cc2)c1 (centres undefined) | 4.09
COc1cc(C(F)(F)F)c2nc(C(F)(F)F)cc(C(O)CC3CCCCN3)c2c1 (centres undefined) | 3.98
CCCCCCCN(CCCCCCC)CC(O)c1cc(-c2ccc(Cl)cc2)nc2c(C(F)(F)F)cccc12 (centres undefined) | 3.13
CCCCN(CCCC)CC(O)c1cc(-c2ccc(Br)cc2)nc(-c2ccc(C(F)(F)F)cc2)c1 (centres undefined) | 3.62
CCCCCCCCN(CCCCCCCC)CC(O)c1cc2ccccc2c2ccccc12 (centres undefined) | 2.54
CCC(C)NCC(O)c1cc(-c2ccc(Cl)cc2)nc(-c2ccc(Cl)cc2)c1 (centres undefined) | 4.09
CN1CCCCC1CC(O)c1cc2ccccc2c2cc(Br)ccc12 (centres undefined) | 3.44

Structure (SMILES) | log(1/C)
CCCCN(CCCC)CC(O)c1cc(-c2ccc(Br)cc2)nc(-c2ccc(Br)cc2)c1 (centres undefined) | 3.31
CCCNCC(O)c1cc2ccc(C(F)(F)F)cc2c2cc(C(F)(F)F)ccc12 (centres undefined) | 4.48
CCCCCCCN(CCCCCCC)CC(O)c1cc2ccc(Br)cc2c2sccc12 (centres undefined) | 2.67
CCCCN(CCCC)CC(O)c1cc(-c2ccc(OC)cc2)nc(-c2ccc(Cl)c(Cl)c2)c1 (centres undefined) | 2.68
OC(CC1CCCCN1)c1cc2cc(C(F)(F)F)cc(C(F)(F)F)c2c2cc(C(F)(F)F)ccc12 (centres undefined) | 4.47
CCCCCCCN(CCCCCCC)CC(O)c1cc2ccc(C(F)(F)F)cc2c2cc(C(F)(F)F)ccc12 (centres undefined) | 3.89
CCCCN(CCCC)CCC(O)c1cc2c(Cl)cc(Cl)cc2c2cc(C(F)(F)F)ccc12 (centres undefined) [HALOFANTRINE] | 4.47
Cc1cc(C)c2nc(-c3ccc(F)cc3)cc(C(O)CC3CCCCN3)c2c1 (centres undefined) | 3.61
OC(CC1CCCCN1)c1cc2cc(Cl)cc(Cl)c2c2cc(Cl)ccc12 (centres undefined) | 4.46
CCCCN(CCCC)CCC(O)c1cc2ccc(C(F)(F)F)cc2c2cc(C(F)(F)F)ccc12 (centres undefined) | 4.03
CCNC(C)(C)CC(O)c1cc(C(F)(F)F)nc2c(C(F)(F)F)cccc12 (centres undefined) | 2.54
CCCCCCCN(CCCCCCC)CC(O)c1cc2ccc(Cl)cc2c2ccncc12 (centres undefined) | 2.31
OC(CN1CCCCC1)c1cc(-c2ccccc2)nc2c(Cl)cc(Cl)cc12 (centres undefined) | 3.17
CCOc1ccc2nccc(C(O)C[N+]34CCC(CC3)C(CC)C4)c2c1 (centres undefined) | 1.97
CCCCN(CCCC)CCC(O)c1cc2ccccc2c2ccccc12 (centres undefined) | 2.45
CN1CCN(CC(O)c2cc(-c3ccc(Cl)cc3)nc3c(Cl)cc(Cl)cc23)CC1 (centres undefined) | 3.81
CCCCN(CCCC)CC(O)c1cccc2c1cc(Br)c1ccccc12 (centres undefined) | 2.15
CCCCN(CCCC)CC(O)c1cccc2c1ccc1ccccc12 (centres undefined) | 2.06
OC(CC1CCCCN1)c1cc(-c2ccc(Cl)cc2)nc2c(C(F)(F)F)cccc12 (centres undefined) | 4.45
CCCCN(CCCC)CC(O)c1cc(Cl)cc2cc3ccccc3cc12 (centres undefined) | 2.72
OC(CC1CCCCN1)c1cc(-c2ccc(Cl)cc2)nc2c(Cl)cc(Cl)cc12 (centres undefined) | 3.97
CCCCN(CCCC)CC(O)c1cc2c(Cl)cc(Cl)cc2c2ncccc12 (centres undefined) | 2.94
OC(CNC1CCCC1)c1cc(-c2ccc(Cl)cc2)nc2c(Cl)cc(Cl)cc12 (centres undefined) | 3.53
CCCCN(CCC)CC(O)c1ccc2cc3ccccc3cc2c1 (centres undefined) | 2.49
